According to ChEMBL document CHEMBL1147331, “Cytotoxic and antimalarial bisbenzylisoquinoline alkaloids from Stephania erecta” (J Nat Prod, 1993):
Converted amounts (≈) assume the structure as drawn.

Key:
Plasmodium falciparum [1] = experiment: Antimalarial activity after 24 hrs against chloroquine-sensitive Plasmodium falciparum D6 infected type A+ human erythrocytes by [3H]hypoxanthine uptake; format: functional; details: read-out: ED50 (the source's name)
Plasmodium falciparum [2] = experiment: Antimalarial activity after 24 hrs against chloroquine-resistant Plasmodium falciparum W2 infected type A+ human erythrocytes by [3H]hypoxanthine uptake; format: functional; details: read-out: ED50 (the source's name)
[3] = Cytotoxicity against human BCA1 cells after 3 days by sulforhodamine B assay; format: cell-based; details: read-out: ED50
[4] = Cytotoxicity against human HT1080 cells after 3 days by sulforhodamine B assay; format: cell-based, HT-1080; details: read-out: ED50
[5] = Cytotoxicity against human LUC1 cells after 3 days by sulforhodamine B assay; format: cell-based; details: read-out: ED50
[6] = Cytotoxicity against human SK-MEL-2 cells after 3 days by sulforhodamine B assay; format: cell-based; details: read-out: ED50
[7] = Cytotoxicity against human Col1 cells after 3 days by sulforhodamine B assay; format: cell-based; details: read-out: ED50
[8] = Cytotoxicity against human KB cells after 3 days by sulforhodamine B assay; format: cell-based; details: read-out: ED50
[9] = Cytotoxicity against human KBV1 cells after 3 days by sulforhodamine B assay; format: cell-based, KB-V1; details: read-out: ED50
[10] = Cytotoxicity against mouse P388 cells after 2 days by sulforhodamine B assay; format: cell-based; details: read-out: ED50
[11] = Cytotoxicity against human A431 cells after 3 days by sulforhodamine B assay; format: cell-based, A-431; details: read-out: ED50
[12] = Cytotoxicity against human LNCAP cells after 3 days by sulforhodamine B assay; format: cell-based; details: read-out: ED50
[13] = Cytotoxicity against human ZR-75-1 cells after 3 days by sulforhodamine B assay; format: cell-based; details: read-out: ED50
[14] = Selectivity index, ratio of ED50 for human BCA1 cells to ED50 for chloroquine-sensitive Plasmodium falciparum D6; format: toxicity, cell-based; details: read-out: Ratio ED50
[15] = Selectivity index, ratio of ED50 for human BCA1 cells to ED50 for chloroquine-resistant Plasmodium falciparum W2; format: toxicity, cell-based; details: read-out: Ratio ED50
[16] = Selectivity index, ratio of ED50 for human HT1080 cells to ED50 for chloroquine-sensitive Plasmodium falciparum D6; format: toxicity, cell-based, HT-1080; details: read-out: Ratio ED50
[17] = Selectivity index, ratio of ED50 for human HT1080 cells to ED50 for chloroquine-resistant Plasmodium falciparum W2; format: toxicity, cell-based, HT-1080; details: read-out: Ratio ED50
[18] = Selectivity index, ratio of ED50 for human LUC1 cells to ED50 for chloroquine-sensitive Plasmodium falciparum D6; format: toxicity, cell-based; details: read-out: Ratio ED50
[19] = Selectivity index, ratio of ED50 for human LUC1 cells to ED50 for chloroquine-resistant Plasmodium falciparum W2; format: toxicity, cell-based; details: read-out: Ratio ED50
[20] = Selectivity index, ratio of ED50 for human MEL2 cells to ED50 for chloroquine-sensitive Plasmodium falciparum D6; format: toxicity, cell-based; details: read-out: Ratio ED50
[21] = Selectivity index, ratio of ED50 for human COL1 cells to ED50 for chloroquine-sensitive Plasmodium falciparum D6; format: toxicity, cell-based; details: read-out: Ratio ED50
[22] = Selectivity index, ratio of ED50 for human COL1 cells to ED50 for chloroquine-resistant Plasmodium falciparum W2; format: toxicity, cell-based; details: read-out: Ratio ED50
[23] = Selectivity index, ratio of ED50 for human KB cells to ED50 for chloroquine-sensitive Plasmodium falciparum D6; format: toxicity, cell-based; details: read-out: Ratio ED50
[24] = Selectivity index, ratio of ED50 for human KB cells to ED50 for chloroquine-resistant Plasmodium falciparum W2; format: toxicity, cell-based; details: read-out: Ratio ED50
[25] = Selectivity index, ratio of ED50 for human KB-V1 cells to ED50 for chloroquine-sensitive Plasmodium falciparum D6; format: toxicity, cell-based; details: read-out: Ratio ED50
[26] = Selectivity index, ratio of ED50 for human KB-V1 cells to ED50 for chloroquine-resistant Plasmodium falciparum W2; format: toxicity, cell-based; details: read-out: Ratio ED50
[27] = Selectivity index, ratio of ED50 for human LNCaP cells to ED50 for chloroquine-sensitive Plasmodium falciparum D6; format: toxicity, cell-based; details: read-out: Ratio ED50
[28] = Selectivity index, ratio of ED50 for human LNCaP cells to ED50 for chloroquine-resistant Plasmodium falciparum W2; format: toxicity, cell-based; details: read-out: Ratio ED50
[29] = Selectivity index, ratio of ED50 for human ZR-75-1 cells to ED50 for chloroquine-sensitive Plasmodium falciparum D6; format: toxicity, cell-based; details: read-out: Ratio ED50
[30] = Selectivity index, ratio of ED50 for human ZR-75-1 cells to ED50 for chloroquine-resistant Plasmodium falciparum W2; format: toxicity, cell-based; details: read-out: Ratio ED50
in vitro [31] = details: mouse, P388 cells
Description: Selectivity index, ratio of ED50 for mice (Mus musculus) P388 cells to ED50 for chloroquine-sensitive Plasmodium falciparum D6

in vitro [32] = details: mouse, P388 cells; remark: listed apart in the source
Description: Selectivity index, ratio of ED50 for mice (Mus musculus) P388 cells to ED50 for chloroquine-resistant Plasmodium falciparum W2

in vitro [33] = details: human, A431 cells
Description: Selectivity index, ratio of ED50 for human A431 cells to ED50 for chloroquine-sensitive Plasmodium falciparum D6

in vitro [34] = details: human, A431 cells; remark: listed apart in the source
Description: Selectivity index, ratio of ED50 for human A431 cells to ED50 for chloroquine-resistant Plasmodium falciparum W2

[35] = Selectivity index, ratio of ED50 for human MEL2 cells to ED50 for chloroquine-resistant Plasmodium falciparum W2; format: toxicity, cell-based; details: read-out: Ratio ED50

Structure (SMILES) | EC50 (Plasmodium falciparum [1]) [µg/mL] | EC50 (Plasmodium falciparum [2]) [µg/mL] | CC50 at 72 h [3] [µg/mL] | CC50 at 72 h [4] [µg/mL] | CC50 at 72 h [5] [µg/mL] | CC50 at 72 h [6] [µg/mL] | CC50 at 72 h [7] [µg/mL] | CC50 at 72 h [8] [µg/mL] | CC50 at 72 h [9] [µg/mL] | CC50 at 48 h [10] [µg/mL] | CC50 at 72 h [11] [µg/mL] | CC50 at 72 h [12] [µg/mL] | CC50 at 72 h [13] [µg/mL] | selectivity ratio [14] | selectivity ratio [15] | selectivity ratio [16] | selectivity ratio [17] | selectivity ratio [29] | selectivity ratio [30] | selectivity ratio (in vitro [32]) | other results
COc1ccc2cc1Oc1ccc(cc1)C[C@H]1c3cc(c(OC)cc3CCN1C)Oc1c(O)c(OC)cc3c1[C@@H](C2)NCC3 | 0.0686 (≈ 0.115 µM) | 0.125 (≈ 0.21 µM) | 4.1 (≈ 6.89 µM) | 2.2 (≈ 3.7 µM) | 8.4 (≈ 14.1 µM) | 15.4 (≈ 25.9 µM) | 4.7 (≈ 7.9 µM) | 6.3 (≈ 10.6 µM) | 8.1 (≈ 13.6 µM) | 0.1 (≈ 0.168 µM) | 4.2 (≈ 7.06 µM) | 6.6 (≈ 11.1 µM) | 1.2 (≈ 2.02 µM) | 60 | 33 | 32 | 18 | 23 | 13 | 1 | selectivity ratio [18]: 123; selectivity ratio [19]: 67; selectivity ratio [20]: 225; selectivity ratio [21]: 69; selectivity ratio [22]: 38; selectivity ratio [23]: 92; selectivity ratio [24]: 50; selectivity ratio [25]: 118; selectivity ratio [26]: 65; selectivity ratio [27]: 97; selectivity ratio [28]: 53; selectivity ratio (in vitro [31]): 2; selectivity ratio (in vitro [33]): 61; selectivity ratio (in vitro [34]): 34
COc1ccc2cc1Oc1ccc(cc1)C[C@H]1c3c(cc(O)c(OC)c3Oc3cc4c(cc3OC)CCN(C)[C@@H]4C2)CCN1C | 0.13 (≈ 0.214 µM) | 0.31 (≈ 0.509 µM) | 4.7 (≈ 7.72 µM) | 7.2 (≈ 11.8 µM) | 8.6 (≈ 14.1 µM) | 12.8 (≈ 21 µM) | 7.5 (≈ 12.3 µM) | 6.4 (≈ 10.5 µM) | 7.4 (≈ 12.2 µM) | 3.7 (≈ 6.08 µM) | 8.9 (≈ 14.6 µM) | 8.3 (≈ 13.6 µM) | 2.1 (≈ 3.45 µM) |  |  |  |  | 4 | 43 | 76 | 
COc1ccc2cc1Oc1ccc(cc1)C[C@H]1c3c(cc4c(c3Oc3cc5c(cc3OC)CCN[C@@H]5C2)OCO4)CCN1C | 0.0466 (≈ 0.0786 µM) | 0.129 (≈ 0.218 µM) | 1.7 (≈ 2.87 µM) | 1.9 (≈ 3.21 µM) | 2 (≈ 3.37 µM) | 10.5 (≈ 17.7 µM) | 3.1 (≈ 5.23 µM) | 3.9 (≈ 6.58 µM) | 1.4 (≈ 2.36 µM) | 0.1 (≈ 0.169 µM) | 1.8 (≈ 3.04 µM) | 3 (≈ 5.06 µM) | 0.9 (≈ 1.52 µM) | 36 | 13 | 41 | 15 | 19 | 7 | 1 | selectivity ratio [18]: 43; selectivity ratio [19]: 16; selectivity ratio [20]: 225; selectivity ratio [35]: 81; selectivity ratio [21]: 67; selectivity ratio [22]: 24; selectivity ratio [23]: 84; selectivity ratio [24]: 30; selectivity ratio [25]: 30; selectivity ratio [26]: 11; selectivity ratio [27]: 64; selectivity ratio [28]: 23; selectivity ratio (in vitro [31]): 2; selectivity ratio (in vitro [33]): 39; selectivity ratio (in vitro [34]): 14
COc1ccc2cc1Oc1ccc(cc1)C[C@H]1c3c(cc(OC)c(OC)c3Oc3cc4c(cc3OC)CCN[C@@H]4C2)CCN1C | 0.0459 (≈ 0.0754 µM) | 0.0937 (≈ 0.154 µM) | 3.2 (≈ 5.26 µM) | 7.4 (≈ 12.2 µM) | 8.8 (≈ 14.5 µM) | 14.5 (≈ 23.8 µM) | 5.5 (≈ 9.04 µM) | 6 (≈ 9.86 µM) | 2 (≈ 3.29 µM) | 3.5 (≈ 5.75 µM) | 6.1 (≈ 10 µM) | 3.7 (≈ 6.08 µM) | 1.9 (≈ 3.12 µM) | 70 | 34 | 161 | 79 | 41 | 20 | 37 | selectivity ratio [18]: 192; selectivity ratio [19]: 94; selectivity ratio [20]: 316; selectivity ratio [35]: 155; selectivity ratio [21]: 120; selectivity ratio [22]: 59; selectivity ratio [23]: 131; selectivity ratio [24]: 64; selectivity ratio [25]: 44; selectivity ratio [26]: 21; selectivity ratio [27]: 81; selectivity ratio [28]: 40; selectivity ratio (in vitro [31]): 76; selectivity ratio (in vitro [33]): 133; selectivity ratio (in vitro [34]): 65
CCN(CC)CCCC(C)Nc1ccnc2cc(Cl)ccc12 (stereo not given) [CHLOROQUINE] | 0.0025 (≈ 0.00782 µM) | 0.0317 (≈ 0.0991 µM) | > 20 | 6.5 (≈ 20.3 µM) | > 20 | > 20 | 10.1 (≈ 31.6 µM) | 17.4 (≈ 54.4 µM) | 7.8 (≈ 24.4 µM) | > 5 | > 20 | 14.3 (≈ 44.7 µM) | 15.8 (≈ 49.4 µM) |  |  |  |  |  |  |  | 
OC(c1cc(C(F)(F)F)nc2c(C(F)(F)F)cccc12)C1CCCCN1 (stereo not given) [MEFLOQUINE] | 0.009 (≈ 0.0238 µM) | 0.0012 (≈ 0.00317 µM) | 5.3 (≈ 14 µM) | 2.3 (≈ 6.08 µM) | 7.7 (≈ 20.4 µM) | 8.9 (≈ 23.5 µM) | 1 (≈ 2.64 µM) | 3.5 (≈ 9.25 µM) | 1.1 (≈ 2.91 µM) | 0.2 (≈ 0.529 µM) | 3 (≈ 7.93 µM) | 2.3 (≈ 6.08 µM) | 1.2 (≈ 3.17 µM) | 588 | 4420 | 256 | 1920 | 300 | 2250 | 166 | selectivity ratio [20]: 989; selectivity ratio [35]: 7420; selectivity ratio [21]: 111; selectivity ratio [22]: 833; selectivity ratio [23]: 389; selectivity ratio [25]: 122; selectivity ratio [26]: 917; selectivity ratio [27]: 256; selectivity ratio [28]: 1920; selectivity ratio (in vitro [31]): 22; selectivity ratio (in vitro [33]): 333; selectivity ratio (in vitro [34]): 2500
